The target in the first assay is T1, Type-1 angiotensin II receptor (Bos taurus, UniProt P25104).
T1 sequence (P25104 whole entry): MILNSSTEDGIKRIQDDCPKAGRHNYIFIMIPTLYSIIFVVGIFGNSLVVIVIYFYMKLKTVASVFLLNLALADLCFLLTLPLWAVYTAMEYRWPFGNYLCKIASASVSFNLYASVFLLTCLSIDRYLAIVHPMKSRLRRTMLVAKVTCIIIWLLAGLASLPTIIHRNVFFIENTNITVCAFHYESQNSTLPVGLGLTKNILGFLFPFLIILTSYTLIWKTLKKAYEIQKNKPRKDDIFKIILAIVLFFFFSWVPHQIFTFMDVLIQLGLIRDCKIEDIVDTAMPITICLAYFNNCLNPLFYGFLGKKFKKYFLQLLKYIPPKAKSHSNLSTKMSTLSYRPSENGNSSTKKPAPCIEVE
The experiment in a line: In vitro binding affinity to angiotensin II receptor in bovine adrenal cortex. Format: tissue-based.
Conditions: not given
In turn, `CCCCc1nc2ccc([C@H]3OC[C@H]4[C@@H]3ON3[C@@H]4CCC3(C)C)cc2c(=O)n1Cc1ccc(-c2ccccc2-c2nnn[nH]2)cc1` had an IC50 of 0.053 µM. The same measure, in the same setting: the result for `CCCCc1nc2ccc([C@@H]3C[C@H](CO)ON3C)cc2c(=O)n1Cc1ccc(-c2ccccc2-c2nn[nH]n2)cc1` reads 0.061 µM. On the same count and under the same terms, the result for `CCCCc1nc2ccc([C@@H]3[C@@H]4C(=O)OC[C@@H]4ON3C)cc2c(=O)n1Cc1ccc(-c2ccccc2-c2nnn[nH]2)cc1` reads 0.15 µM; that for `CCCCc1nc2ccc([C@@H]3[C@H]4CCCN3OC4)cc2c(=O)n1Cc1ccc(-c2ccccc2-c2nnn[nH]2)cc1`, 0.016 µM; that for `CCCCc1nc2ccc([C@@H]3C[C@H]4C(c5ccccc5)=NO[C@H]4O3)cc2c(=O)n1Cc1ccc(-c2ccccc2-c2nn[nH]n2)cc1`, 0.076 µM. Still for that read-out and setting: for `CCCCc1nc2ccc([C@H]3[C@@H]4C(=O)OC[C@@H]4ON3C)cc2c(=O)n1Cc1ccc(-c2ccccc2-c2nn[nH]n2)cc1` the value was 0.068 µM. Take `CCCCc1nc2ccc([C@H]3C4CCCCCCC4ON3C)cc2c(=O)n1Cc1ccc(-c2ccccc2-c2nn[nH]n2)cc1` (stereo partly specified): the IC50 amounted to 0.18 µM. Compared with the last compound, the IC50 is about 2.6-fold higher. In turn, `CCCCc1nc2ccc([C@@H]3[C@@H]4C(=O)OC[C@@H]4ON3Cc3ccccc3)cc2c(=O)n1Cc1ccc(-c2ccccc2-c2nn[nH]n2)cc1` returned a half-maximal inhibitory concentration (IC50) of 0.094 µM. Regarding `CCCCc1nc2ccc([C@H]3C[C@H](CO)ON3C)cc2c(=O)n1Cc1ccc(-c2ccccc2-c2nnn[nH]2)cc1`, the IC50 was found to be 0.043 µM. Consider `CCCCc1nc2ccc([C@@H]3[C@@H]4C(=O)CC[C@@H]4ON3C)cc2c(=O)n1Cc1ccc(-c2ccccc2-c2nn[nH]n2)cc1`, for which the IC50 turned out to be 0.042 µM. The same measure, in the same setting: the result for `CCCCc1nc2ccc([C@H]3[C@@H]4C(=O)OC[C@@H]4ON3Cc3ccccc3)cc2c(=O)n1Cc1ccc(-c2ccccc2-c2nnn[nH]2)cc1` reads 0.177 µM.

Regarding `CCCCc1nc2ccc([C@H]3[C@@H]4CCC[C@@H]4ON3C)cc2c(=O)n1Cc1ccc(-c2ccccc2-c2nnn[nH]2)cc1`, the IC50 came to 0.098 µM. On the same count and under the same terms, the result for `CCCCc1nc2ccc(C3=NN[C@H]4C(=O)N(C)C(=O)[C@@H]34)cc2c(=O)n1Cc1ccc(-c2ccccc2-c2nn[nH]n2)cc1` reads 0.11 µM; that for `CCCCc1nc2ccc([C@@H]3C[C@H]4C5CCC(C)(C)N5O[C@H]4O3)cc2c(=O)n1Cc1ccc(-c2ccccc2-c2nn[nH]n2)cc1` (stereo partly specified), 0.032 µM.

In turn, `CCCCc1nc2ccc([C@H]3[C@@H]4C(=O)CC[C@@H]4ON3Cc3ccccc3)cc2c(=O)n1Cc1ccc(-c2ccccc2-c2nnn[nH]2)cc1` displayed an IC50 of 0.079 µM. On the same count and under the same terms, for `CCCCc1nc2ccc([C@H]3[C@@H]4C(=O)CC[C@@H]4ON3C)cc2c(=O)n1Cc1ccc(-c2ccccc2-c2nnn[nH]2)cc1` the value was 0.098 µM. Same read-out and setting: for `CCCCc1nc2ccc([C@H]3C4CCCC4ON3C)cc2c(=O)n1Cc1ccc(-c2ccccc2-c2nn[nH]n2)cc1` (stereo partly specified) the value was 0.154 µM; for `CCCCc1nc2ccc([C@@H]3C[C@H]4C(c5ccc(C)cc5)=NO[C@H]4O3)cc2c(=O)n1Cc1ccc(-c2ccccc2-c2nnn[nH]2)cc1`, 0.105 µM. Still for that read-out and setting: the result for `CCCCc1nc2ccc([C@H]3OC[C@@H]4ON5[C@@H](CCC5(C)C)[C@@H]43)cc2c(=O)n1Cc1ccc(-c2ccccc2-c2nn[nH]n2)cc1` reads 0.038 µM; that for `CCCCc1nc2ccc([C@H]3[C@@H]4C(=O)CCC[C@@H]4ON3C)cc2c(=O)n1Cc1ccc(-c2ccccc2-c2nn[nH]n2)cc1`, 0.9 µM.

Take `CCCCc1nc2ccc([C@@H]3C[C@H]4CCCCN3O4)cc2c(=O)n1Cc1ccc(-c2ccccc2-c2nnn[nH]2)cc1`: the IC50 amounted to 0.042 µM.

For another assay, the system named is Rattus norvegicus. The assay can be described thus: Decrease in Mean Arterial Blood Pressure(MABP) in Aorta […] rat model at a dose of 3 mg/kg p.o. Type of assay: functional. Conditions: route oral.
The compound `CCCCc1nc2ccc([C@H]3[C@@H]4C(=O)OC[C@@H]4ON3C)cc2c(=O)n1Cc1ccc(-c2ccccc2-c2nn[nH]n2)cc1` yielded an MABP of 60 mmHg. Still for that read-out and setting: the result for `CCCCc1nc2ccc(C3CCC4CCCCC4O3)cc2c(=O)n1Cc1ccc(-c2ccccc2-c2nn[nH]n2)cc1` (stereo unspecified) reads 15 mmHg; that for `CCCCc1nc2ccc([C@H]3OC[C@@H]4ON5[C@@H](CCC5(C)C)[C@@H]43)cc2c(=O)n1Cc1ccc(-c2ccccc2-c2nn[nH]n2)cc1`, 45 mmHg.

Test system in a further assay: not listed separately
The assay can be described thus: Percent blockade of the vasopressor response to A II (0.05 ug/kg i.v.) at a dose of 5 mg/kg p.o. in A II challenge model. Format: functional. Conditions: route oral.
Compound `CCCCc1nc2ccc([C@H]3[C@@H]4C(=O)OC[C@@H]4ON3C)cc2c(=O)n1Cc1ccc(-c2ccccc2-c2nn[nH]n2)cc1` showed an Activity of 95%.

Test system in another assay: not listed separately
The experiment in a line: Percent blockade of the vasopressor response to A II (0.05 ug/kg i.v.) at a dose of 5 mg/kg p.o. in A II challenge model. Particulars: route oral. Format: functional.
The compound `CCCCc1nc2ccc([C@@H]3[C@@H]4C(=O)CC[C@@H]4ON3C)cc2c(=O)n1Cc1ccc(-c2ccccc2-c2nn[nH]n2)cc1` gave an Activity of 95%.

The values above are taken from ChEMBL document CHEMBL1151584, “6-Substituted Quinazolinone Angiotensin II Receptor Antagonists” (Bioorg Med Chem Lett, 1994).
